# Measurements as given in patent US20090054376A1, “BENZOFURAN DERIVATIVES WITH THERAPEUTIC ACTIVITIES” (Pharmos Corporation, priority 2005, published 2009).
# Where two headings read alike, the source gives them in different places.
# Legend:
# [1] = test system: carrageenan induced inflammatory pain and paw edema; experiment: Inflammatory pain and paw edema induced by carrageenan; format: in vivo, Male Sprague Dawley rats; details: for inhibition in vivo at 3 mg/kg / inhibition in vivo at 10 mg/kg: Rattus norvegicus, ip; for inhibition in vivo at 3 mg/kg: 3 mg/kg i.p. (one asterisk)
# Procedure, shortened: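 Male Sprague Dawley rats (~200 g) received 0.1 ml 2% λ-carrageenan subplantar in the right paw; compounds given i.p. at 3, 10 or 20 mg/kg (some p.o.) immediately after. Thermal (Hargreaves) latency, mechanical threshold, paw thickness and volume measured at 0 and 3 h; values are inter-paw differences ([…], ΔForce), volume as % of vehicle.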
# [2] = test system: CB1 related cannabimimetic activity; experiment: Safety: body temperature, catalepsy, spontaneous locomotor activity, elevated plus maze, sensitivity to touch; format: in vivo, ICR male mice; details: 2 mg/kg i.v.
# Experimental: In the present study, impact of compounds of the invention on the central nervous system was measured by monitoring the body temperature, catalepsy and spontaneous locomotor activity of rodents. These activities are part of the Tetrad assays which are indicative, if all parameters are affected, of CB1 mediated activity. In addition, lack of CNS psychomimetic effect was assessed in the elevated plus maze model. Finally, sensitivity to touch was determined in order to evaluate peripheral CB1 related activity.
# ICR male mice (average body weight 25 g, Harlan, Israel) were administered the compounds of the invention i.v. at a dose of 2 mg/kg and at a volume dose of 5 ml/kg. The psychoactive cannabinoid HU-210 was used as positive control at the 100-fold lower dose of 0.02 mg/kg i.v. The following measurements were made starting 15 minutes after compound administration. All tests were completed for each animal within approximately 10 minutes. Rectal temperature was monitored using a thermistor probe (YSI model 400, USA). Spontaneous locomotion was assessed using the open field methodology. The number of squares crossed by the animals were recorded and analyzed during a period of three minutes. At the end of the open field test, the animals were tested for catalepsy symptoms. This was carried out by gently forcing the animal to stand on its hind paws when its front paws are holding on an elevated beam. The time for the animal to step down of the beam was measured in seconds. A normal animal withdraws the beam immediately whereas cataleptic animal tend to stay on the beam. The longer the animal stays leaning on the beam, the more cataleptic the animal is. The behavior of the animals was then assessed in the elevated plus maze. The elevated plus maze consists of two open arms and two arms that are enclosed by high walls (arms 30×10 cm, wall height 20 cm). The elevated plus maze is usually elevated 80 cm above the floor. The mouse is placed on the maze head facing an open arm, and the time spent in the different compartments of the maze (open arms, closed arms and central area) are measured for the next 5 minutes. Results are expressed as percent of the time spent in the open arms, normal animals preferring to stay in the closed arms of the maze. Finally, animals were gently touched by an observer blinded for the treatment group and their sensitivity scored according to the following scale: 0 not sensitive, 1 sensitive and 2 highly sensitive. Results are expressed as average±SEM. At the end of the study, the animals were euthanized.
# [3] = 10 mg/kg i.p., 3 hours after carrageenan, reduction in paw swelling, read-out: Percent Inhibition of Inflammatory Pain Responses, Edema
# [4] = 10 mg/kg i.p., 3 hours, mechanical stimulus, read-out: Percent Inhibition of Inflammatory Pain Responses, ΔForce
# [5] = 10 mg/kg i.p., 3 hours, thermal stimulus, read-out: Percent Inhibition of Inflammatory Pain Responses, ΔLT
Compound,adverse cannabimimetic activities in any of the parameters monitored [2],"inhibition in vivo at 10 mg/kg [1, 3]","inhibition in vivo at 10 mg/kg [1, 4]","inhibition in vivo at 10 mg/kg [1, 5]",other results
"CCCCCCC(C)(C)c1cc(O)c2c(c1)OC1C(O)CCCCC21 (stereo not drawn) [Compound C7S-2, 2-(1,1-dimethylheptyl)-5,6,7,8,9,9a-hexahydro-4bH-10-oxa-benzo[α]azulen-4,9-diol]",,,,,"reduction of paw swelling ([1]; 5 mg/kg p.o.): 41%; reduction of paw swelling ([1]; 20 mg/kg p.o.): 50%; inhibition in vivo at 3 mg/kg ([1]; 3 hours, mechanical stimulus, read-out: Percent Inhibition of Inflammatory Pain Responses, ΔForce): 66%; inhibition in vivo at 3 mg/kg ([1]; 3 hours, reduction in paw swelling, read-out: Percent Inhibition of Inflammatory Pain Responses, Edema): 56%; inhibition in vivo at 3 mg/kg ([1]; 3 hours, thermal stimulus, read-out: Percent Inhibition of Inflammatory Pain Responses, ΔLT): 66%"
"CCCCC(C)(C)c1cc(O)c2c(c1)OC1CCCCC21 (stereo not drawn) [Compound C6S-3, 3-(1,1-dimethylpentyl)-5a,6,7,8,9,9a-hexahydro-dibenzofuran-1-ol]",None,48%,49%,84%,"decrease of number of squares crossed ([2]; non-significant): 13%; number of squares crossed (spontaneous locomotor activity) ([2]; period of three minutes, vehicle 75.63±6.24): 65.80±7.04"
"CCCCCCC(C)(C)c1cc(O)c2c(c1)OC1C=CCCC21 (stereo not drawn) [Compound C6S-2, 3-(1,1-Dimethylheptyl)-5a,8,9,9a-tetrahydro-dibenzofuran-1-ol]",None,36%,30%,58%,
"CCCCCCC(C)(C)c1cc(O)c2c(c1)OC1(C)CCCC21 (stereo not drawn) [Compound C5S-2, 6-(1,1-dimethylheptyl)-8a-methyl-2,3,3a,8a-tetrahydro-1H-8-oxa-cyclo-penta[α]inden-4-ol]",None,,,,"Percent Inhibition of Inflammatory Pain Responses, Edema ([1]; 10 mg/kg i.p., 3 hours after carrageenan, reduction in paw swelling): 48%; Percent Inhibition of Inflammatory Pain Responses, ΔForce ([1]; 10 mg/kg i.p., 3 hours, mechanical stimulus): 8%; Percent Inhibition of Inflammatory Pain Responses, ΔLT ([1]; 10 mg/kg i.p., 3 hours, thermal stimulus): 43%"
"CCCCCCC(C)(C)c1cc(O)c2c3c(oc2c1)C(=O)CCC3(C)C [Compound C6M-9, 7-(1,1-Dimethylheptyl)-9-hydroxy-1,1-dimethyl-2,3-dihydro-1H-dibenzofuran-4-one]",None,49%,27%,75%,
"CCCCC(C)(C)c1cc(O)c2c(c1)OC1(C)CCCC21 (stereo not drawn) [Compound C5S-1, 6-(1,1-dimethylpentyl)-8a-methyl-2,3,3a,8a-tetrahydro-1H-8-oxa-cyclopenta[α]inden-4-ol]",None,,,,
"CCCCC(C)(C)c1cc(O)c2c(c1)OC1C2CCC(C)(C)C1O (stereo not drawn) [Compound C6S-7, 3-(1,1-dimethylpentyl)-7,7-dimethyl-5a,6,7,8,9,9a-hexahydro-dibenzofuran-1,6-diol]",None,,41%,54%,
